From publication PMC4890880 (ACS infectious diseases, 2016)
Like-named read-outs stand apart in the source and are kept apart here.

Tests used:
HepG2-A16-CD81EGFP cells = assay: cells; details: Homo sapiens; for IC50: HepG2, read-out: Tox IC50; for inhibition at 50 µM: HepG2, read-out: Tox max inhibition (%) @ 50 uM; for inhibition at 10 µM: HepG2, read-out: Tox max inhibition (%) @ 10 uM
[1] = target: QuantiLum Recombinant Luciferase (Photinus pyralis, UniProt P08659); assay: Bioluminescence quantification of compound luciferase inhibition; details: for Emax: read-out: LucInhib max inhibition
[2] = test system: Plasmodium berghei (Pb-Luc) exoerythrocytic-stage parasites; assay: microbe, parasite or virus in culture; details: for inhibition at 10 µM: read-out: PbLuc max inhibition (%) @ 10 uM
[3] = HepG2, read-out: HepG2 Tox% @ 50 uM rep1
[4] = HepG2, read-out: HepG2 Tox% @ 50 uM rep2
[5] = read-out: Inhibition% @ 50 uM rep1
[6] = read-out: Inhibition% @ 50 uM rep2
[7] = read-out: PbLuc IC50, dose response, 1/3 dilutions, max conc. 10 or 50 uM, unit inferred
[8] = read-out: PbLuc max inhibition (%) @ 50 uM
[9] = read-out: PbLuc IC50, dose response, unit inferred

QuantiLum Recombinant Luciferase, sequence (P08659 whole entry): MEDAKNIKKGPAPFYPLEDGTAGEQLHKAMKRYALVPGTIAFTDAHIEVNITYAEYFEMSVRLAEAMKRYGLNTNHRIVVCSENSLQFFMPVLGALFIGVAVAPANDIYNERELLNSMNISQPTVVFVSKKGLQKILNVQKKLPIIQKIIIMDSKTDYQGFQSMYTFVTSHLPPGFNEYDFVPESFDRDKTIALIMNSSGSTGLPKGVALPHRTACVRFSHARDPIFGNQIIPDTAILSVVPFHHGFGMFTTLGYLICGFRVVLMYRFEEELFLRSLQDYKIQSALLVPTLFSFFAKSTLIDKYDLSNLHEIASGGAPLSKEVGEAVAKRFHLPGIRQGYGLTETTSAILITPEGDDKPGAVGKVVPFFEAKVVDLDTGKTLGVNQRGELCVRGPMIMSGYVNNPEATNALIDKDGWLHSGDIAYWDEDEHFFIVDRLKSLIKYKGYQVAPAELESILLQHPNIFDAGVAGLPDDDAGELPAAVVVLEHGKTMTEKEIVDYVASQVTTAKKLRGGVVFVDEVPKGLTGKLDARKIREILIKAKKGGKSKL

SMILES	cytotoxicity at 50 µM (HepG2-A16-CD81EGFP cells; [3]) [%]	cytotoxicity at 50 µM (HepG2-A16-CD81EGFP cells; [4]) [%]	IC50 (HepG2-A16-CD81EGFP cells) [µM]	inhibition at 50 µM (HepG2-A16-CD81EGFP cells) [%]	IC50 [1] [µM]	Emax [1] [%]	inhibition at 50 µM [2, 5] [%]	inhibition at 50 µM [2, 6] [%]	IC50 [2, 7] [µM]	inhibition at 50 µM [2, 8] [%]	IC50 [2, 9] [µM]	inhibition at 10 µM (HepG2-A16-CD81EGFP cells) [%]	inhibition at 10 µM [2] [%]
Cc1ccc(Cn2c(N3CCC(C(=O)NCc4cccs4)CC3)nc3ccccc32)cc1 [MMV007564]	97	99	> 50	69	> 50	27	104	105	2.09	106			
COc1ccc(C(C)=O)cc1N1C(=O)C2C(C1=O)C1(c3ccccc3)C(=O)C2(c2ccccc2)C(c2ccc(C)cc2)=C1c1ccc(C)cc1 (centres unmarked) [MMV007695]	-1.58	13	> 50	5.54	> 50	35	101	104		60	24.8		
CCCCOc1ccc(C(=O)Nc2cc(C)on2)cc1 [MMV007906]	-15	-10	> 10		> 20	34	98	98	0.907			7.53	97
CCOc1ccc(CCNC(=O)c2cccs2)cc1OCC [MMV007978]	43	10	> 50	8	> 50	34	104	106	7.94	104			
Cc1c(C)n(Cc2ccc(F)cc2)c2ccc(C(=O)NCc3ccco3)cc12 [MMV008149]	9	19	> 50	32	> 50	10	102	102	0.765	107			
Oc1c2c(nc3cc(-c4ccccc4)nn13)CCCC2 [MMV008270]	-14	-22	> 10		0.577	92	103	104	0.147			8	106
CCN1CCN(c2c(C(=O)c3ccccc3)cnc3cc(OC)c(OC)cc23)CC1 [MMV008474]	7		> 50	7	> 50	22	102	103	1.01	106			
CCOc1cc2c(cc1OCC)C(c1cc(OC)c(O)cc1Cl)NCC2 (centres unmarked) [MMV008956]	-6.54	-15	> 10		> 20	24	101	100			> 10	9	22
CCN(CC)c1ccc(NC(=O)c2cccs2)cc1 [MMV009060]	7	16	> 50	6	33.1	80	101	102	1.76	104			
CC(C)(C)c1ccc(C2CC3=Nc4ccccc4N(C(=O)c4ccccc4Cl)C(c4ccc(F)cc4)C3=C(O)C2)cc1 (centres unmarked) [MMV011436]	1.44		> 50	19	> 50	20	93	94	2.39	99			
Cc1cc(NC(=O)c2ccc(-c3ccccc3)cc2)no1 [MMV018984]	-22	-20	> 10		> 20	58	101	100	0.79			19	101
COc1ccc(N2CCN(C(CNC(=O)C3CCCCC3)c3ccc4c(c3)OCO4)CC2)cc1 (centres unmarked) [MMV019662]	18	28	> 50	19	> 50	38	89	94		49	> 50		
O=C(Nc1ccc(N2CCN(Cc3ccccc3)CC2)cc1)c1cccs1 [MMV019670]	-7.52	-9	> 10		> 20	14	102	102	0.0944			32	110
COc1cccc(C(=O)Nc2ccc(-c3nc4ccccc4[nH]3)cc2)c1 [MMV019762]	-16		> 10		> 20	-3	-94	-91			> 10	9	31
O=C(NC1CCN(Cc2ccccc2)CC1)c1cc(-c2cccnc2)nc2ccc(Cl)cc12 [MMV020490]	0.383	-0.245	> 50	12	> 50	23	95	91		71	> 50		
CC(=O)Nc1nnc(SCc2c(C)cc(C(C)(C)C)cc2C)s1 [MMV020700]	0.191	8	> 50	10	> 50	34	103	105	2.29	103			
CCCCCC(=O)N1c2ccccc2N=C2CC(c3ccc(OC)c(OC)c3)CC(O)=C2C1c1ccc(C(F)(F)F)cc1 (centres unmarked) [MMV085583]	14	28	> 50	4.23	> 50	34	97	90	7.1	89			
COc1cc(CNCCc2ccc(Cl)cc2)cc(OC)c1O [MMV128432]	-13		> 50	33	> 50	39	90	93		73	> 50		
COc1ccc(-c2nc(N3CCN(C(=O)C4CCCCC4)CC3)c3c4c(sc3n2)CCCC4)cc1 [MMV396594]	2.59		> 50	37	> 50	44	98	98		69	39.9		
CCOc1ccccc1CN1CCc2nc3cc(C(C)(C)C)nn3c(O)c2C1 [MMV396595]	0.78		> 50	8	> 50	50	99	100	0.569	106			
Cc1sc(NC(=O)c2ccccc2)c(C(c2cccs2)N2CCN(c3ccccc3)CC2)c1C (centres unmarked) [MMV396652]	14		> 50	28	> 50	33	99	99	4.07	97			
COc1ccc(-c2cc3c(SCC(=O)Nc4cc(C(F)(F)F)ccc4Cl)nccn3n2)cc1 [MMV396679]	7	18	> 50	14	> 50	10	102	103	2.18	105			
Cc1ccc(-c2cc3c(SCC(=O)Nc4cc(C(F)(F)F)ccc4Cl)nccn3n2)cc1 [MMV396680]	-4	2.13	> 50	11	> 50	21	92	85	8.63	95			
N#Cc1nc(Cc2cccc3ccccc23)oc1N1CCN(C(c2ccccc2)c2ccccc2)CC1 [MMV396726]	-11		> 50	-1	> 50	23	97	92	2.68	100			
CCOC(=O)c1cnc2c(CC)cccc2c1O [MMV498479]	-10		> 50	1	> 50	19	103	103	1.67	106			
CCOc1cc(Cl)c(C(C)NC(=O)c2ccccc2)cc1OCC (centres unmarked) [MMV665800]	49	21	> 50	22	> 50	41	97	93		89	> 50		
